Test results from PubChem BioAssay (NCI).
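Compound exposure: 48 hours, 5 concentrations, 96-well plates. GI50: concentration for 50% inhibition of growth. TGI denotes the concentration required for complete inhibition of growth.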

What was measured:
Test in all cases: NCI anticancer screen, dose series, 48 h
K-562 leukemia = system: K-562 leukemia
MCF7 breast = system: MCF7 breast
M14 melanoma = system: M14 melanoma
HS 578T breast = system: HS 578T breast
NCI-H226 lung = system: NCI-H226 lung
SF-539 CNS = system: SF-539 CNS
MDA-MB-231 breast = system: MDA-MB-231 breast
BT-549 breast = system: BT-549 breast
NCI-H460 lung = system: NCI-H460 lung
OVCAR-8 ovarian = system: OVCAR-8 ovarian

SMILES | GI50 (K-562 leukemia) [µM] | TGI (K-562 leukemia) [µM] | GI50 (MCF7 breast) [µM] | TGI (MCF7 breast) [µM] | GI50 (M14 melanoma) [µM] | TGI (M14 melanoma) [µM] | GI50 (HS 578T breast) [µM] | TGI (HS 578T breast) [µM] | GI50 (NCI-H226 lung) [µM] | TGI (NCI-H226 lung) [µM] | GI50 (SF-539 CNS) [µM] | TGI (SF-539 CNS) [µM] | GI50 (MDA-MB-231 breast) [µM] | TGI (MDA-MB-231 breast) [µM] | GI50 (BT-549 breast) [µM] | TGI (BT-549 breast) [µM] | GI50 (NCI-H460 lung) [µM] | TGI (NCI-H460 lung) [µM] | GI50 (OVCAR-8 ovarian) [µM] | TGI (OVCAR-8 ovarian) [µM]
Cc1nn2c(/C=C3/C(=O)Nc4ccc(Cl)cc43)c(-c3ccccc3)nc2s1 | 3.85 | 20.6 | 3.85 | 25 | 6.33 | 21.5 | 2.45 | 7.79 | 1.51 | 4.6 | 2.25 | 6.54 | 2.29 | 8.41 | 3.11 | 14.3 | 3.18 | 11.7 | 2.19 | 5.76
CN1CCN(Cc2ccc(NC(=O)c3[nH]ncc3Nc3ncnc4c3CCC4)cc2)CC1 | 0.648 | 12.1 | 0.372 | 11.1 | 0.948 | 13.4 | 0.705 | 6.28 | 0.755 | 13 | 0.52 | 2.61 | 2.98 | 7.8 | 2.14 | 6.97 | 1.87 | 10.6 | 3.27 | 13.5
COC[C@H]1OC(=O)c2coc3c2[C@@]1(C)C1=C(C3=O)[C@@H]2CCC(=O)[C@@]2(C)C[C@H]1OC(C)=O | – | > 100 | – | > 100 | – | > 59 | 0.341 | 6.9 | 11 | > 100 | – | 31 | 14.4 | > 100 | 0.485 | 12.7 | – | > 100 | – | > 100
CC(=O)Oc1cccc2c1C(=O)C(Br)(Br)CCC2 | – | 20.8 | – | 5.71 | – | 8.67 | – | 39.7 | – | 20.1 | – | 23.1 | – | 8.41 | – | 4.19 | – | 43.6 | – | 13
Cn1c2ccccc2c2nnc(N/N=C/c3ccccn3)nc21 | 1.75 | > 39.6 | 0.285 | 6.59 | 0.285 | – | 2.06 | 82.9 | 0.337 | 5.36 | 0.284 | 0.854 | 0.478 | 38.1 | 0.452 | > 38.9 | 0.346 | 5.69 | 0.426 | > 84.2
CC1(C)N=C(N)N=C(N)N1c1cccc(CCCCc2ccc(S(=O)(=O)F)cc2Cl)c1 | 3.42 | > 100 | 0.577 | 15.7 | 7.55 | 28.1 | 43.2 | > 100 | 9.37 | 50.6 | 2.06 | 20.1 | 10.9 | 43.1 | 4.31 | > 46.3 | 0.465 | > 38.6 | 6.17 | > 61.4
Cn1c2ccc([N+](=O)[O-])cc2c(=O)c2c(O)cc(O)cc21 | – | > 100 | – | > 100 | – | > 100 | – | > 100 | – | > 100 | – | 55.2 | – | > 100 | – | > 100 | – | > 100 | – | 25.9
CN(C)CCNC(=O)c1cc([N+](=O)[O-])ccn1 | – | 52.2 | – | 31.3 | – | > 100 | – | > 100 | – | > 100 | – | 59.4 | – | 58.1 | – | > 100 | – | > 100 | – | 76.4
CNC1NC(=O)c2ccccc2N1Cc1ccc(F)cc1 (configuration not stated) | – | > 100 | – | > 100 | – | > 100 | – | > 100 | – | > 100 | – | > 100 | – | > 100 | – | > 100 | – | > 100 | – | > 100
N#CSCC1CC(O)(c2ccccc2)C(c2ccccc2)C(c2ccc(F)cc2)O1 (configuration not stated) | 1.5 | 5.97 | 2.8 | 11.6 | 1.84 | 4.09 | 3.18 | 12.9 | 4.89 | 16.1 | 3.15 | 7.69 | 2.53 | 8.62 | 2.32 | 5.39 | 4.53 | 18.1 | 3.18 | 11
NC1CCC[C@@H](O)[C@H]1O (some centres not stated) | – | > 100 | – | > 100 | – | > 100 | – | > 100 | – | > 100 | – | > 100 | – | > 100 | – | > 100 | – | > 100 | – | > 100
COc1ccc(C(=O)c2cc(OC)c(OC)c(OC)c2)cc1O | < 0.01 | > 100 | 0.0327 | > 100 | < 0.01 | > 100 | 0.028 | > 100 | 4.76 | > 100 | 0.0112 | 0.0557 | 0.0559 | > 100 | 0.0337 | > 100 | 0.0373 | > 100 | 0.0427 | > 100
O=C(N/N=C/c1ccc(O)cc1O)c1ccc(Nc2ccnc(C(F)(F)F)c2)cc1 | > 20.7 | > 100 | – | > 100 | > 100 | > 100 | 4.4 | 29 | 26.4 | > 100 | 6.32 | 24.5 | 5.83 | 57.2 | 22.2 | 79.9 | > 100 | > 100 | 7.76 | > 100
CCOc1cc2ncc(C#N)c(Nc3ccc(F)c(Cl)c3)c2cc1NC(=O)/C=C/CN(C)C | 0.36 | > 4.21 | 1.23 | 5.56 | 0.312 | 1.83 | 0.381 | > 10 | 0.584 | > 5.01 | 0.826 | 2.31 | 0.882 | 5.07 | 0.665 | > 7.78 | 0.655 | 4.26 | 0.295 | > 9.22
Cc1ccc2c(=O)[nH]sc2c1 | – | 47.2 | – | 36.1 | – | 23.9 | – | 40 | – | 45.5 | – | 26.9 | – | 31.2 | – | 30 | – | > 100 | – | 33.2
Cc1ccc(NS(=O)(=O)c2cc(C)ccc2C)cc1 | 0.761 | 29.4 | 3.59 | 83 | 2.43 | 11 | 10.9 | 77.7 | 15.3 | 70.4 | 4.21 | 15.1 | 4.44 | 25.7 | 9.62 | 27.4 | 3.4 | 13.5 | 5.94 | 42.7
O=C(Nc1ccc2oc(=O)c(C(=O)O)cc2c1)Oc1ccccc1 | – | > 100 | – | > 100 | – | > 100 | – | > 100 | – | > 100 | – | > 100 | – | > 100 | – | > 100 | – | > 100 | – | > 100
COc1cccc(/C=C/C(=O)c2cc3c(N)c(C(=O)Nc4cccc(Cl)c4C)sc3nc2C)c1 | 0.241 | > 50 | 0.473 | > 24.8 | 1.02 | 2.78 | 1.71 | > 50 | 0.983 | 2.53 | 0.967 | 2.01 | 1.13 | 2.68 | 1 | 2.8 | 1.38 | 4.45 | 1.49 | > 50
O=C(c1cc(-c2cc3c(cc2C(=O)N2Cc4ccccc4C[C@H]2CN2CCOCC2)OCO3)n2c1CCCC2)N(c1ccccc1)c1ccc(O)cc1 | 3.88 | > 100 | 3.52 | > 100 | 18.1 | > 100 | 6.05 | > 100 | 10.1 | 56 | 15.7 | > 100 | 10.9 | 53.3 | 36.4 | > 100 | 7.09 | > 100 | 10.6 | > 100
